For 15 compounds, IC50 results are on record in patent US20240101535A1, “DIHYDROISOQUINOLINONE DERIVATIVE AND APPLICATION THEREOF” (ETERN BIOPHARMA (SHANGHAI) CO., LTD., priority 2020, published 2024).

Where only a bound is given, the exact number is not on record here.

Assay [1] addresses WDR5 protein (22-334aa) with MLL1 polypeptide (3672-3773aa) (Homo sapiens, UniProt P61964). The experiment in a line: WDR5-MLL PPI inhibitory activity test (HTRF). Type of assay: binding. As to conditions: His-tagged WDR5 and biotin-tagged MLL1 polypeptide. The text has this: Test Example 1: WDR5-MLL PPI Inhibitory Activity Test
Effect of the compounds on WDR5 (WD Repeat Domain 5) and MLL1 (mixed-lineage leukemia 1) peptides at molecular level.
The effect of the compound on the interaction of WDR5 protein (22-334aa) with MLL1 polypeptide (3672-3773aa) was detected by HTRF (Homogeneous Time-Resolved Fluorescence) technology. When the N-terminal His-tagged WDR5 recognized by the Anti-6His-Eu cryptate donor interacts with the biotin-tagged MLL1 polypeptide recognized by the streptavidin-APC receptor, the donor and acceptor are pulled close enough to produce fluorescence resonance energy transfer (FRET). […] Therefore, the decrease in FRET signal can reflect the compound's inhibition on the interaction of WDR5 with MLL1 polypeptide.
The compound to be tested was diluted 3-fold with DMSO. […] Then the compound was diluted with reaction buffer (25 mM HEPES pH=7.5, 100 mM NaCl, 0.05% Tween 20) to control the final concentration of DMSO at 0.5%. In a 384-well plate, 1 μL of compound and 3 μL of 42 nM WDR5 protein were added, centrifuged at 1000 rpm for 1 min, incubated at room temperature for 60 min, followed by adding 3 μL of 333 nM MLL1 polypeptide with incubation at room temperature for 10 min, and followed by adding 3 μL of a mixed liquid of Anti-6His-Eu cryptate and streptavidin-APC with centrifugation at 1000 rpm for 1 mi and incubation at room temperature protected from light for 60 min, using a multifunction microplate reader (EnVision®2105) to read the signal. The following controls were set up per plate: control group (1 μL with 5% DMSO reaction buffer, 3 μL of 42 nM WDR5, 3 μL of MLL1 polypeptide, 3 μL of Anti-6His-Eu cryptate and streptavidin-APC). Blank group (1 μL reaction buffer with 5% DMSO, 3 μL reaction buffer, 3 μL MLL1 polypeptide, 3 μL Anti-6His-Eu cryptate and streptavidin-APC). The test data was calculated according to the signal ratio of two beams of fluorescence at different wavelengths: (665 nm signal/620 nm signal)*10000. […] The IC50 value was calculated using XLfit software.
(TR-FRET usually uses a lanthanide donor and a delayed reading to cut background.)

The subject of a further assay is MV4-11 cells. The experiment in a line: MV4-11 cell proliferation inhibition experiment (CellTiter-Glo). Type of assay: cell-based. To be noted: Homo sapiens, 144 h, 6 days, read-out: cell proliferation inhibitory activity. As to the method:
Test Example 2: MV4-11 Cell (ATCC: CRL-9591) Proliferation Inhibition Experiment
ATP in living cells was quantitatively detected by CellTiter-Glo (Promega-G7573) Luminescence Cell Viability Assay Kit to determine the effect of the compounds to be tested on cell proliferation. • Step 1: MV4-11 cells were seeded in 96-well plates (Greiner-655098) at a density of 1,500 cells per well with a volume of 140 μL per well; Cell culture medium components included RPM11640 (Gibco-A10491-01)+10% FBS (Gibco-10099-141C)+1% Penicillin-Streptomycin (5,000 U/mL, Gibco-15070-063). • Step 2: On the day of cell seeding, the cells were treated with the compound to be tested. The compound to be tested was diluted with a 3-fold gradient, and a total of 9 concentration gradients were set. DMSO (Sigma, D2650) with 0.5% final concentration or a DMSO solution containing the compound to be tested was added per well with 2 or 3 replicate wells at each concentration point. The plates were incubated at 37° C. in a 5% CO2 incubator (Thermo Scientific Steri-Cycle 371) for 6 days. • Step 3: The cell viability in the control and treatment groups was detected with CellTiter-Glo Luminescent Cell Viability Assay Kit. 50 μL of CellTiter-Glo was added per well, mixed well, and incubated for 15 min at room temperature protected from light. According to the kit instructions, the chemiluminescence signal was read using a multifunctional microplate reader (EnVision, PerkinElmer).
The inhibition percentage (%) of the compound at each concentration point was calculated by the following formula:
Inhibition Percentage (%)=(1−signal value of the group treated with the compound/signal value of the group treated with DMSO)*100.
The value of cell proliferation semi-inhibitory concentration IC50 was calculated using GraphPad Prism software, and the results are shown in Table 2.

With `CCOc1cc([C@H](C)N2CC3(CC3)c3c(CN4CCN(C5CC5)CC4)cc(Cn4ccnc4NC)cc3C2=O)ncc1F` [Compound 64, (S)-5′-((4-cyclopropylpiperazin-1-yl)methyl)-2′-(1-(4-ethoxy-5-fluoropyridine-2-yl)ethyl)-7′-((2-(methylamino)-1H-imidazol-1-yl)methyl)-2′,3′-dihydro-1′H-spiro[cyclopropan-1,4′-isoquinoline]-1′-one], the IC50 was less than 0.02 µM in assay [1] and 0.05 to 0.2 µM in the assay with MV4-11 cells.

For `CCOc1cc(CN2CC3(CC3)c3c(CN4CCN(C)CC4)cc(Cn4ccnc4NC)cc3C2=O)nn1C` [Compound 66, 2′-((5-ethoxy-1-methyl-1H-pyrazole-3-yl)methyl)-7′-((2-(methylamino)-1H-imidazol-1-yl)methyl)-5′-((4-methylpiperazin-1-yl)methyl)-2′,3′-dihydro-1′H-spiro[cyclopropan-1,4′-isoquinoline]-1′-one], the IC50 in assay [1] was less than 0.02 µM; with MV4-11 cells, less than 0.05 µM.

For `CCOc1cc([C@H](C)N2CC3(CC3)c3c(CN4CC(F)(F)C4)cc(Cn4ccnc4NC)cc3C2=O)ncc1C#N` [Compound 67, (S)-6-(1-(5′-((3,3-difluoroazetidinyl-1-yl)methyl)-7′-((2-(methylamino)-1H-imidazol-1-yl)methyl)-1′-one-1′H-spiro[cyclopropan-1,4′-isoquinoline]-2′(3′H)-yl)ethyl)-4-ethoxynicotinonitrile], the figures for the IC50 (in assay [1]; in the assay with MV4-11 cells) were less than 0.02 µM and less than 0.05 µM, respectively.

For the compound `CCOc1cc([C@H](C)N2CC3(CC3)c3c(CN4CC(F)(F)C4)cc(Cn4ccnc4NC)cc3C2=O)ncc1F` [Compound 68, (S)-5′-((3,3-difluoroazetidinyl-1-yl)methyl)-2′-(1-(4-ethoxy-5-fluoropyridine-2-yl)ethyl)-7′-((2-(methylamino)-1H-imidazol-1-yl)methyl)-2′,3′-dihydro-1′H-spiro[cyclopropan-1,4′-isoquinoline]-1′-one], the IC50 in assay [1] is less than 0.02 µM; in the assay on MV4-11 cells it was 0.05 to 0.2 µM.

With `CCOc1cc([C@H](C)N2CC3(CC3)c3c(CN4C5CC4CN(C)C5)cc(Cn4ccnc4NC)cc3C2=O)ncc1F` [Compound 70, 2′-((S)-1-(4-ethoxy-5-fluoropyridine-2-yl)ethyl)-5′-((3-methyl-3,6-diazadicyclo[3.1.1]heptan-6-yl)methyl)-7′-((2-(methylamino)-1H-imidazol-1-yl)methyl)-2′,3′-dihydro-1′H-spiro[cyclopropan-1,4′-isoquinoline]-1′-one], the IC50 in assay [1] was less than 0.02 µM; in the assay on MV4-11 cells, less than 0.05 µM.

`CCOc1cc(CN2CC3(CC3)c3c(CN(C)C)cc(Cn4ccnc4NC)cc3C2=O)ncc1C#N` [Compound 71, 6-((5′-((dimethylamino)methyl)-7′-((2-(methylamino)-1H-imidazol-1-yl)methyl)-1′-one-1′H-spiro[cyclopropan-1,4′-isoquinoline]-2′(3′H)-yl)methyl)-4-ethoxynicotinonitrile]: the IC50 in assay [1] is less than 0.02 µM; in the assay on MV4-11 cells, less than 0.05 µM.

`CCOc1cc([C@H](C)N2CC3(CCC3)c3c(CN4CCOCC4)cc(Cn4ccnc4NC)cc3C2=O)ncc1C#N` [Compound 72, (S)-4-ethoxy-6-(1-(7′-((2-(methylamino)-1H-imidazol-1-yl)methyl)-5′-(morpholinylmethyl)-1′-one-1′H-spiro[cyclobutyl-1,4′-isoquinoline]-2′(3′H)-yl)ethyl)nicotinonitrile]: the results for the IC50 (in assay [1]; in the assay on MV4-11 cells) were less than 0.02 µM and less than 0.05 µM, respectively.

Turning to `CCOc1cc([C@H](C)N2CC3(CCC3)c3c(CN4CCN(C)CC4)cc(Cn4ccnc4NC)cc3C2=O)ncc1C#N` [Compound 73, (S)-4-ethoxy-6-(1-(7′-((2-(methylamino)-1H-imidazol-1-yl)methyl)-5′-((4-methylpiperazin-1-yl)methyl)-1′-one-1′H-spiro[cyclobutan-1,4′-isoquinoline]-2′(3′H)-yl)ethyl)nicotinonitrile], the IC50 in assay [1] is less than 0.02 µM; with MV4-11 cells, less than 0.05 µM.

Take `CCOc1cc(CN2CC3(CCC3)c3c(CN(C)C)cc(Cn4ccnc4NC)cc3C2=O)ncc1C#N` [Compound 77, 6-((5′-((dimethylamino)methyl)-7′-((2-(methylamino)-1H-imidazol-1-yl)methyl)-1′-one-1′H-spiro[cyclobutan-1,4′-isoquinoline]-2′(3′H)-yl)methyl)-4-ethoxynicotinonitrile]: the IC50 in assay [1] is less than 0.02 µM; in the assay on MV4-11 cells, less than 0.05 µM.

With `CCOc1cc([C@H](C)N2CC3(CCC3)c3c(CN4CCN(S(C)(=O)=O)CC4)cc(Cn4ccnc4NC)cc3C2=O)ncc1F` [Compound 78, (S)-2′-(1-(4-ethoxy-5-fluoropyridine-2-yl)ethyl)-7′-((2-(methylamino)-1H-imidazol-1-yl)methyl)-5′-((4-(methylsulfonyl)piperazin-1-yl)methyl)-2′,3′-dihydro-1′H-spiro[cyclobutan-1,4′-isoquinoline]-1′-one], the results for the IC50 (in assay [1]; with MV4-11 cells) were less than 0.02 µM and less than 0.05 µM, respectively.

For `CCOc1cc([C@H](C)N2CC3(CCC3)c3c(CN4CC(F)(F)C4)cc(Cn4ccnc4NC)cc3C2=O)ncc1C#N` [Compound 79, (S)-6-(1-(5′-((3,3-difluoroazetidinyl-1-yl)methyl)-7′-((2-(methylamino)-1H-imidazol-1-yl)methyl)-1′-one-1′H-spiro[cyclobutan-1,4′-isoquinoline]-2′(3′H)-yl)ethyl)-4-ethoxynicotinonitrile], the IC50 in assay [1] was less than 0.02 µM; in the assay with MV4-11 cells it was less than 0.05 µM.

As to `CCOc1cc([C@H](C)N2CC3(CCC3)c3c(CN4CCN(S(C)(=O)=O)CC4)cc(Cn4ccnc4NC)cc3C2=O)ncc1C#N` [Compound 80, (S)-4-ethoxy-6-(1-(7′-((2-(methylamino)-1H-imidazol-1-yl)methyl)-5′-((4-(methylsulfonyl)piperazin-1-yl)methyl)-1′-one-1′H-spiro[cyclobutan-1,4′-isoquinoline]-2′(3′H)-yl)ethyl)nicotinonitrile], the IC50 in assay [1] was less than 0.02 µM; in the assay with MV4-11 cells, less than 0.05 µM.

Turning to `CCOc1cc([C@H](C)N2CC3(CCC3)c3c(CN4CCC(OC)CC4)cc(Cn4ccnc4NC)cc3C2=O)ncc1C#N` [Compound 81], the IC50 is less than 0.02 µM in assay [1] and less than 0.05 µM with MV4-11 cells.

On to `CCOc1cc(CN2CC3(CCC3)c3c(CN4CC(F)(F)C4)cc(Cn4ccnc4NC)cc3C2=O)ncc1C#N` [Compound 82, 6-((5′-((3,3-difluoroazetidinyl-1-yl)methyl)-7′-((2-(methylamino)-1H-imidazol-1-yl)methyl)-1′-one-1′H-spiro[cyclobutan-1,4′-isoquinoline]-2′(3′H)-yl)methyl)-4-ethoxynicotinonitrile], for which the figures for the IC50 (in assay [1]; with MV4-11 cells) were less than 0.02 µM and less than 0.05 µM, respectively.

In the case of `CCOc1cc([C@H](C)N2CC3(CCC3)c3c(CN4CCN(C)CC4)cc(Cn4ccnc4NC)cc3C2=O)ncc1F` [Compound 83, (S)-2′-(1-(4-ethoxy-5-fluoropyridine-2-yl)ethyl)-7′-((2-(methylamino)-1H-imidazol-1-yl)methyl)-5′-((4-methylpiperazin-1-yl)methyl)-2′,3′-dihydro-1′H-spiro[cyclobutan-1,4′-isoquinoline]-1′-one], the IC50 in assay [1] was less than 0.02 µM; in the assay on MV4-11 cells it was less than 0.05 µM.
